Data set [1] relates to LS174T tumor. As to the kind of experiment: Near-infrared fluorescence imaging of LS174T tumor-bearing mice. The following applies: 4 h after i.v. injection; 1 nmol dye/mouse.
The subject of data set [2] is human umbilical endothelial cells (HUVEC). Particulars: 300 μg/ml peptide, 48 h exposure, absorbance 570 nm, n = 6.
Data set [3] relates to LS174T human colorectal cancer cells. Particulars: 300 μg/ml peptide, 48 h exposure, absorbance 570 nm, n = 6.
Data set [4] relates to LS174T tumor. Type of data set: in vivo, mouse. The following applies: 20 mg/kg i.p. every other day, 3 doses; 12 days after the optical imaging.

Residues, ends and D or L forms follow the SMILES beside them. No end group written: not given here. *: point of attachment. IRDye800CW = CC1(C)C(/C=C/C2=C(Oc3ccc(S(=O)(=O)O)cc3)C(=C/C=C3/N(CCCCS(=O)(=O)O)c4ccc(S(=O)(=O)O)cc4C3(C)C)/CCC2)=[N+](CCCCCC(=O)*)c2ccc(S(=O)(=O)[O-])cc21

`CC(C)C[C@H](NC(=O)[C@@H](NC(=O)[C@H](Cc1c[nH]c2ccccc12)NC(=O)CCCCC[N+]1=C(C=CC2=C(Oc3ccc(S(=O)(=O)O)cc3)C(=CC=C3N(CCCCS(=O)(=O)O)c4ccc(S(=O)(=O)O)cc4C3(C)C)CCC2)C(C)(C)c2cc(S(=O)(=O)[O-])ccc21)[C@@H](C)O)C(=O)N[C@@H](CCCNC(=N)N)C(=O)N1CCC[C@H]1C(=O)N[C@H](C(=O)N[C@@H](CC(C)C)C(=O)N[C@@H](Cc1c[nH]cn1)C(=O)N[C@H](C(=O)N[C@@H](CC(=O)O)C(=O)N[C@@H](Cc1c[nH]cn1)C(=O)N[C@@H](C)C(=O)O)[C@@H](C)O)[C@@H](C)O` [scrambled peptide dye conjugate] (IRDye800CW-WTLRPTLHTDHA-OH; N-terminus and C-terminus assumed): the “renal clearance in NIR fluorescence images” value with LS174T tumor [1] is “cleared through the kidneys much faster than the BRP peptide”.
In the case of LLADTTHHRPWT [BRP], the “cell viability (MTT)” value in data set [2] came to 92.2 ± 2.4%; in data set [3], 98.3 ± 12.1%.
With “bevacizumab: humanized monoclonal antibody directed against human VEGF”, in the data set with LS174T tumor [4], the tumor volume was determined as 476.6 mm^3.

(Values after paper PMC3233971 (Amino acids, 2010).)
